Experimental findings from patent US20240239806A1, “COMPOUNDS, COMPOSITIONS AND METHODS OF TREATING DISORDERS” (Chengdu Anticancer Bioscience, Ltd., priority 2021, published 2024) are described below.

SMILES strings stand for the structures.

The subject of the first assay is RPEMYC^H2B-GFP cells. Briefly: Phenotypic screening assay (mitotic arrest, polyploidy). The settings on record: 1 nM to 30 μM, read-out: Min. Effective conc. for Polyploidy (≥5%). Type of assay: cell-based. Summed up: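 RPE cells expressing MYC and H2B-EGFP treated with compound at 1 nM–30 μM; mitotic index scored at 24 h and polyploidy (DNA content) at 48 h by automated imaging, with reads at 24, 48 or 72 h. Hits show transient mitotic arrest followed by polyploid accumulation.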
For the compound `COC(=O)c1cc(OC)cc(Oc2ccnc3ccccc23)c1` [Compound 8, Methyl 3-methoxy-5-(quinolin-4-yloxy)benzoate], the minimal effective concentration was in the range of 0.001 to 1 µM.

Still in this assay, the particulars now being: 1 nM to 30 μM, read-out: Mitotic Arrest (≥5%).
Consider `COC(=O)c1cc(OC)cc(Oc2ccnc3ccccc23)c1` [Compound 8, Methyl 3-methoxy-5-(quinolin-4-yloxy)benzoate], for which the minimal effective concentration was in the range of 0.001 to 1 µM.

Staying with this assay, now noted: 1 nM to 30 μM, read-out: Proliferative arrest (>50%).
In the case of `COC(=O)c1cc(OC)cc(Oc2ccnc3ccccc23)c1` [Compound 8, Methyl 3-methoxy-5-(quinolin-4-yloxy)benzoate], the IC50 fell in the range of 1 to 1000 nM.

A further assay deals with HCT116. Briefly: MECP in cancer cell line. It counts as cell-based. The settings on record: Homo sapiens, HCT-116. Summed up: (§1)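 Potency reported in bins: A 1 nM-1.0 μM, B to 10.0 μM, C to 30.0 μM, D above 30.0 μM. Compounds (1 nM-30 μM) applied to cells in DMEM/5% FBS; imaging-based readout at 24-72 h of mitotic index (raised at 24 h) and polyploidy (48 h), marking cytokinetic failure.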
`COC(=O)c1cc(OC)cc(Oc2ccnc3ccccc23)c1` [Compound 8, Methyl 3-methoxy-5-(quinolin-4-yloxy)benzoate] yielded a minimal effective concentration of 0.001 to 1 µM.

The next assay has as its system Hela. Briefly: MECP in cancer cell line. Type of assay: cell-based. The following applies: Homo sapiens. Summed up:
as §1
As to `COC(=O)c1cc(OC)cc(Oc2ccnc3ccccc23)c1` [Compound 8, Methyl 3-methoxy-5-(quinolin-4-yloxy)benzoate], the minimal effective concentration lay in the range of 0.001 to 1 µM.

In a further assay the test system is MDA-MB-231. Briefly: MECP in cancer cell line. The settings on record: Homo sapiens. Type of assay: cell-based. Summed up:
as §1
On to `COC(=O)c1cc(OC)cc(Oc2ccnc3ccccc23)c1` [Compound 8, Methyl 3-methoxy-5-(quinolin-4-yloxy)benzoate], for which the minimal effective concentration was 0.001 to 1 µM.

The next assay relates to NCI-H460. Briefly: MECP in cancer cell line. Type of assay: cell-based. The following applies: Homo sapiens. Summed up:
as §1
Consider `COC(=O)c1cc(OC)cc(Oc2ccnc3ccccc23)c1` [Compound 8, Methyl 3-methoxy-5-(quinolin-4-yloxy)benzoate], for which the minimal effective concentration was in the range of 1 to 10 µM.

For the next assay, the system named is NCI-H596. In words: MECP in cancer cell line. The settings on record: Homo sapiens. It counts as cell-based. Summed up: as §1
Compound `COC(=O)c1cc(OC)cc(Oc2ccnc3ccccc23)c1` [Compound 8, Methyl 3-methoxy-5-(quinolin-4-yloxy)benzoate] came in with a minimal effective concentration of 0.001 to 1 µM.

For the next assay, the system named is T2 HCC. In words: MECP in cancer cell line. Type of assay: cell-based. The following applies: Mus musculus. Summed up: as §1
On to `COC(=O)c1cc(OC)cc(Oc2ccnc3ccccc23)c1` [Compound 8, Methyl 3-methoxy-5-(quinolin-4-yloxy)benzoate], for which the minimal effective concentration is 0.001 to 1 µM.

The subject of the next assay is T98G. In words: MECP in cancer cell line. Type of assay: cell-based. The settings on record: Homo sapiens. Summed up: as §1
In turn, `COC(=O)c1cc(OC)cc(Oc2ccnc3ccccc23)c1` [Compound 8, Methyl 3-methoxy-5-(quinolin-4-yloxy)benzoate] had a minimal effective concentration of 1 to 10 µM.

For a further assay, the system named is NCI-H23. Briefly: MECP in cancer cell line. Type of assay: cell-based. The settings on record: Homo sapiens. Summed up: as §1
Regarding `COC(=O)c1cc(OC)cc(Oc2ccnc3ccccc23)c1` [Compound 8, Methyl 3-methoxy-5-(quinolin-4-yloxy)benzoate], the minimal effective concentration fell in the range of 0.001 to 1 µM.

For another assay, the system named is HCT116. In words: MTT assay of cellular proliferation. The settings on record: Homo sapiens, HCT-116, 50% inhibition of cellular proliferation. It counts as cell-based. Summed up: (§2)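 Proliferation is scored by MTT conversion, with formazan absorbance at 570 nm proportional to live cell number. Cultures in 5% FBS DMEM at 37 °C are treated across 1 nM-30 μM, and the half-inhibitory concentration is reported as EC50.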
`COC(=O)c1cc(OC)cc(Oc2ccnc3ccccc23)c1` [Compound 8, Methyl 3-methoxy-5-(quinolin-4-yloxy)benzoate]: the EC50 lay in the range of 1 to 1000 nM.

In a further assay the test system is Hela. Briefly: MTT assay of cellular proliferation. It counts as cell-based. The settings on record: Homo sapiens, 50% inhibition of cellular proliferation. Summed up: as §2
`COC(=O)c1cc(OC)cc(Oc2ccnc3ccccc23)c1` [Compound 8, Methyl 3-methoxy-5-(quinolin-4-yloxy)benzoate] registered an EC50 of 1 to 1000 nM.

The test system of the next assay is MDA-MB-231. In words: MTT assay of cellular proliferation. It counts as cell-based. The following applies: Homo sapiens; MDA-MB-231, MTT, 50% inhibition of cellular proliferation. Summed up:
as §2
Regarding `COC(=O)c1cc(OC)cc(Oc2ccnc3ccccc23)c1` [Compound 8, Methyl 3-methoxy-5-(quinolin-4-yloxy)benzoate], the EC50 was in the range of 1 to 1000 nM.

For the next assay, the system named is NCI-H23. Briefly: MTT assay of cellular proliferation. The following applies: Homo sapiens, 50% inhibition of cellular proliferation. It counts as cell-based. Summed up:
as §2
`COC(=O)c1cc(OC)cc(Oc2ccnc3ccccc23)c1` [Compound 8, Methyl 3-methoxy-5-(quinolin-4-yloxy)benzoate] yielded a half-maximal effective concentration (EC50) of 1 to 1000 nM.

A further assay has as its system NCI-H460. In words: MTT assay of cellular proliferation. It counts as cell-based. The settings on record: Homo sapiens, 50% inhibition of cellular proliferation. Summed up: as §2
Take `COC(=O)c1cc(OC)cc(Oc2ccnc3ccccc23)c1` [Compound 8, Methyl 3-methoxy-5-(quinolin-4-yloxy)benzoate]: the EC50 was above 30000 nM.

A further assay has as its system NCI-H596. In words: MTT assay of cellular proliferation. Type of assay: cell-based. The following applies: Homo sapiens, 50% inhibition of cellular proliferation. Summed up: as §2
On to `COC(=O)c1cc(OC)cc(Oc2ccnc3ccccc23)c1` [Compound 8, Methyl 3-methoxy-5-(quinolin-4-yloxy)benzoate], for which the EC50 lay within 1000 to 10000 nM.

Another assay concerns T2 HCC. In words: MTT assay of cellular proliferation. It counts as cell-based. The settings on record: Mus musculus, 50% inhibition of cellular proliferation. Summed up: as §2
Consider `COC(=O)c1cc(OC)cc(Oc2ccnc3ccccc23)c1` [Compound 8, Methyl 3-methoxy-5-(quinolin-4-yloxy)benzoate], for which the EC50 lay within 1 to 1000 nM.

The next assay relates to T98G. Briefly: MTT assay of cellular proliferation. The settings on record: Homo sapiens, 50% inhibition of cellular proliferation. It counts as cell-based. Summed up: as §2
`COC(=O)c1cc(OC)cc(Oc2ccnc3ccccc23)c1` [Compound 8, Methyl 3-methoxy-5-(quinolin-4-yloxy)benzoate] yielded an EC50 of 1000 to 10000 nM.

For a further assay, the system named is cervical cancer cell line Hela. In words: Soft agar colony formation assay. Type of assay: cell-based, human.
Conditions: not given
From the text:
(§3) Measuring the ability of cells to grow in soft agar has been popularly believed as the gold standard assay for cellular transformation in vitro. In the Soft Agar Assay, cells grow from single cells to cell colonies in a semi-solid agar solution that keeps them away from the solid surface and allows growth in an anchorage-independent way.
(§4) The anchorage-independent growth of cells is one of the hallmarks of cancer cells. Normal epithelial cells are supported by basement membranes that provide survival and proliferative signals while undergo a type of apoptosis called anoikis when lose their attachment to the extracellular matrix. Cancer cells, in contrast, evade detachment-induced apoptosis, leading to uncontrolled proliferation and metastasis. The Soft Agar Colony Formation Assay allows testing of the therapeutic efficacy of compounds against anchorage-independent 3D growth of cancer cells in vin. The assay was performed in 6-well plates with two layers of agar. For the first, 0.75% agar in DMEM medium was melted in a microwave oven and poured to form a bottom layer. Once solidified, 10-100K cells in 1 ml of DMEM containing 0.35% agar was added to form the top layer, which was later covered with 0.5 ml of DMEM. Cell culture medium was changed once every two days until colonies were ready to photograph. We test the antitumor activity of select compounds in soft agar colony formation assays. […] The suppression of growth of these three cancer cell lines in 3D culture is consistent with the potent impact of these compounds on cellular proliferation in 2D culture.
Consider `COC(=O)c1cc(OC)cc(Oc2ccnc3ccccc23)c1` [Compound 8, Methyl 3-methoxy-5-(quinolin-4-yloxy)benzoate], for which the “anchorage-independent growth in soft agar” value is “effectively suppressed the anchorage-independent growth”.

Another assay relates to Human Cancer Cells. Briefly: Anchorage-independent growth in 3D culture (FIG. 3). The settings on record: FIG. 3 legend, cell line not named. Type of assay: cell-based.
Description: as §3, §4
`COC(=O)c1cc(OC)cc(Oc2ccnc3ccccc23)c1` [Compound 8, Methyl 3-methoxy-5-(quinolin-4-yloxy)benzoate]: the “Anchorage-independent Growth of Human Cancer Cells in 3D Culture” value was “Suppress the Anchorage-independent Growth”.
